In series [1] the target is T1, human progesterone receptor B (hPRB) (Homo sapiens, UniProt P06401).
T1 construct: expressed in transfected cells; host or cells: CHO (Chinese hamster ovary) cells
T1 sequence (P06401 1-933): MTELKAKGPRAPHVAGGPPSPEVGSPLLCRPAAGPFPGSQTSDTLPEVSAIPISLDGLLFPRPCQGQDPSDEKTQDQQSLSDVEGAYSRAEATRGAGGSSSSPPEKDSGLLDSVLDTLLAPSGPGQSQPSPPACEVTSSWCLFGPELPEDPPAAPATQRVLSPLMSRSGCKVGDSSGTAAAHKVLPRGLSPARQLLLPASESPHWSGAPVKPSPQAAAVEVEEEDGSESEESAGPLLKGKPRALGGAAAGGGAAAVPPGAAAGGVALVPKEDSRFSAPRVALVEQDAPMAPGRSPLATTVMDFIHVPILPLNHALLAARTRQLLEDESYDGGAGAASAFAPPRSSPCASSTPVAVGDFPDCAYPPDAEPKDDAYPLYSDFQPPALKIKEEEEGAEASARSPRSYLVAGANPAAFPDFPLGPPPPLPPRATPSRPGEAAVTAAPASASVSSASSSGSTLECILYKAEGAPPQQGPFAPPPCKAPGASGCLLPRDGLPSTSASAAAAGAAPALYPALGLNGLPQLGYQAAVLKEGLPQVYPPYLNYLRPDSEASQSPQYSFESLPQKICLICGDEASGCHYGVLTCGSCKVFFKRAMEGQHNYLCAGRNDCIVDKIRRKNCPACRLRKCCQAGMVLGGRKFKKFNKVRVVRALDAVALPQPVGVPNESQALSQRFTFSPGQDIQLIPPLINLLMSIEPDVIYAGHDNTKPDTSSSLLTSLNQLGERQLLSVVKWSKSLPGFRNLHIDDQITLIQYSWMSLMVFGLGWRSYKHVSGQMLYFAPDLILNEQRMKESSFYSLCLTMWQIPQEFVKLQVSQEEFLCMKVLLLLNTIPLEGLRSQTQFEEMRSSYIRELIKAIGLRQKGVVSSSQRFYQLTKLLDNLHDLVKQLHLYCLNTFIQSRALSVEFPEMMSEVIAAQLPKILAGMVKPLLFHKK
The series is described as follows: Progestational activity (transactivation in CHO cells transfected with hPRB, MMTV-luciferase, compared with (16α)-16-ethyl-21-hydroxy-19-norpregn-4-ene-3,20-dione). Type of series: cell-based. Also noted: key: (−) very weak activity found; (+) activity found; (++) high activity; (+++) excellent activity. The note with it: rated by scheme. Here is the method: The transactivative progestagenic activity of the compounds of the invention can be measured, e.g. in Chinese hamster ovary cells (CHO) transfected with the human progesterone receptor B (hPRB), in combination with a mouse mammary tumor virus (MMTV), and luciferase receptor gene (incubation time 16 h, temperature 37° C.) and compared with the activity of (16α)-16-ethyl-21-hydroxy-19-norpregn-4-ene-3,20-dione [according to the procedure described by Schoonen, W. G. E. J. et al, Analyt. Biochem. 261, 222-224 (1998)].
(§1) The compounds according to the invention were tested for androgenic activity and for progestational activity (the procedures for which have been described above) and rated according to the following scheme: […]

The target in series [2] is T2, human androgen receptor (hAR) (Homo sapiens, UniProt P10275).
T2 construct: expressed in transfected cells; host or cells: CHO (Chinese hamster ovary) cells
T2 sequence (P10275 1-920): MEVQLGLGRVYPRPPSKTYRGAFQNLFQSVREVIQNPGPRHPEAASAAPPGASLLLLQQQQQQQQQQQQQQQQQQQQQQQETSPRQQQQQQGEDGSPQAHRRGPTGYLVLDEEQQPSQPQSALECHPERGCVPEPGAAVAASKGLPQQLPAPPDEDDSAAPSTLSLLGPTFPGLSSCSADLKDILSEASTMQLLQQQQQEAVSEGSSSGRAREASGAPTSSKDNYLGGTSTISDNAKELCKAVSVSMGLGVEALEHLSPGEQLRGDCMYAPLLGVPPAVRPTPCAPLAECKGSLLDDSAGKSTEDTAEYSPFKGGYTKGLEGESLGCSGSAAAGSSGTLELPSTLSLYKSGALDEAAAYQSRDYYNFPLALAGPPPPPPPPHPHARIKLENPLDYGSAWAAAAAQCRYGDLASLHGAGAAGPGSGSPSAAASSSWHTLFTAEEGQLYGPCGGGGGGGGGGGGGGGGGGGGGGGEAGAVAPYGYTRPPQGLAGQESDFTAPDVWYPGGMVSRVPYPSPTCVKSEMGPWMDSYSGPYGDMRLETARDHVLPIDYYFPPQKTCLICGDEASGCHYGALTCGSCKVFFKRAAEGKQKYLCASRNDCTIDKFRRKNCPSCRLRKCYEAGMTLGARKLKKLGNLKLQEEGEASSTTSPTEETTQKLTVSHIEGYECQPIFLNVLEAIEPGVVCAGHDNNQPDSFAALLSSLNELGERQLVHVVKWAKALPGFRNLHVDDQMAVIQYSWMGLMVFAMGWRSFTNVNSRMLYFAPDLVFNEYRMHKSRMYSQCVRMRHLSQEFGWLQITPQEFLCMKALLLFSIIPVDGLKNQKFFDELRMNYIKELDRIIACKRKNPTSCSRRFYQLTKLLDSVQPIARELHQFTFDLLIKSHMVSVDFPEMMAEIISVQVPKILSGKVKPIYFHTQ
The series is described as follows: Androgenic activity (transactivation in CHO cells transfected with hAR, MMTV-luciferase, compared with 5α-dihydrotestosterone). Type of series: cell-based. The note with it: rated by scheme. Also noted: key: (−) very weak activity found; (+) activity found; (++) high activity; (+++) excellent activity.
Source text: Androgenic activity can be measured in various ways. Thus, the potency of androgens can be determined in vitro using the cytoplasmic androgen receptor from human breast tumor cells (MCF-7 cell line); see Bergink, E. W. et al, Comparison of the receptor binding properties of nandrolone and testosterone under in vitro and in vivo conditions, J. Steroid Biochem. 22, 831-836 (1985). […] The transactivative androgen activity of the compounds of the invention can be measured, e.g. in Chinese hamster ovary cells (CHO) transfected with the human androgen receptor (hAR), in combination with a mouse mammary tumor virus (MMTV), and luciferase receptor gene (incubation time 16 h, temperature 37° C.) and compared with the activity of 5α-dihydrotestosterone [according to the procedure described by Schoonen, W. G. E. J. et al, Analyt. Biochem. 261, 222-224 (1998)]. For the in vivo potency determination of androgens the classical Hershberger test can be used. In this test the androgenic (increase in prostate weight) and anabolic activities [increase of the musculus levator ani (MLA)] of a compound are tested in immature castrated rats after daily administration for 7 days; see Hershberger, L. G. et al, Myotrophic activity of 19-Nortestosterone and other steroids determined by modified levator ani muscle method, Proceedings of the society for experimental biology and medicine 83, 175-180 (1953). Additionally, the effect of an androgenic compound on LH suppression can be tested in mature castrated rats according to Kumar, N. et al, The biological activity of 7alpha-methyl-19-nortestosteione is not amplified in male reproductive tract as is that of testosterone, Endocrinology 130, 3677-3683 (1992).
as §1

`CCC1=C2[C@H]3[C@H](CC[C@]2(C)[C@@H](O)C1)[C@H]1CCC(=O)C=C1C[C@H]3C` [Example 2, (7α,17β)-15-Ethyl-17-hydroxy-7-methylestra-4,14-dien-3-one]: the Progestational activity result in series [1] is listed as “++”. Further, the Androgenic activity entry in series [2] is “+”.
Consider `C[C@@H]1C=C2[C@H]3[C@H](CC[C@]2(C)[C@H]1O)[C@H]1CCC(=O)C=C1C[C@H]3C` [Example 7a, (7α,16α,17β)-17-Hydroxy-7,16-dimethylestra-4,14-dien-3-one], for which the Progestational activity entry in series [1] is “+”. Besides, the Androgenic activity result in series [2] is reported as “++”.
For the molecule `C[C@@H]1CC2=CC(=O)CC[C@@H]2[C@H]2CC[C@@]3(C)C(=CC[C@@H]3O)[C@@H]21` [Reference compound (Segaloff comp.*), (7α,17β)-7-methyl-17-hydroxyestra-4,14-dien-3-one, reference compound], the Progestational activity result in series [1] is “−”. In addition, in series [2], the Androgenic activity entry is “+++”.
The corresponding values for `CC[C@@H]1CC2=C(CC[C@H](O)C2)[C@H]2CC[C@@]3(C)C(=C(C)C[C@@H]3O)[C@H]12` [Example 8c, (3β,7α,17β)-7-ethyl-15-methylestra-5 (10),14-diene-3,17-diol] are “Prodrug” and “Prodrug”.
By melting point is commonly meant the temperature of the solid-liquid transition. With `CC1=C2[C@H]3[C@H](CC[C@]2(C)[C@@H](O)C1)[C@H]1CCC(=O)C=C1C[C@H]3C` [Example 1, (7α,17β)-17-Hydroxy-7,15-dimethylestra-4,14-dien-3-one], the melting point lay within 164 to 167 °C. Further, the Progestational activity entry in series [1] is on record as “++”. The Androgenic activity entry in series [2] is “++”.
For `CC[C@@H]1CC2=CC(=O)CC[C@@H]2[C@H]2CC[C@@]3(C)C(=C[C@@H](C)[C@@H]3O)[C@H]12` [Example 7b, (7α,16α,17β)-17-Hydroxy-7-ethyl-16-metliylestra-4,14-dien-3-one], the Progestational activity entry in series [1] is reported as “+”. For the same molecule, in series [2], the Androgenic activity result is “++”.
The matching figures for `CC[C@@H]1CC2=C(CCC(=O)C2)[C@H]2CC[C@@]3(C)C(=C(C)C[C@@H]3O)[C@H]12` [Example 8a, (7α,17β)-7-Ethyl-17-hydroxy-15-methylestra-5(10),14-dien-3-one]: “Prodrug” and “Prodrug”.
The corresponding values for `C[C@@H]1C=C2[C@@H]3CCC4=CC(=O)CC[C@@H]4[C@H]3CC[C@]2(C)[C@H]1O` [Example 6a, (16α,17β)-17-Hydroxy-16-methylestra-4,14-dien-3-one] are “+” and “+”.
`C=C[C@@H]1CC2=CC(=O)CC[C@@H]2[C@H]2CC[C@@]3(C)C(=C[C@@H](C)[C@@H]3O)[C@@H]21` [Example 7c, (7α,16α,17β)-17-Hydroxy-16-methyl-7-vinylestra-4,14-dien-3-one]: the Progestational activity result in series [1] is on record as “+”. Moreover, in series [2], the Androgenic activity entry is “++”.
Regarding `CCC1=C2[C@@H]3[C@H](CC)CC4=CC(=O)CC[C@@H]4[C@H]3CC[C@]2(C)[C@@H](O)C1` [Example 4, (7α,17β)-7,15-Diethyl-17-hydroxyestra-4,14-dien-3-one], the Progestational activity entry in series [1] is “+”. Besides, in series [2], the Androgenic activity result was “+”.
`C[C@H]1C=C2[C@@H]3CCC4=CC(=O)CC[C@@H]4[C@H]3CC[C@]2(C)[C@H]1O` [Example 6b, (16β,17β)-17-hydroxy-16-methylestra-4,14-dien-3-one]: the Progestational activity result in series [1] is listed as “+”. For the same molecule, the Androgenic activity entry in series [2] was “++”.
The matching figures for `CC[C@]12CC[C@H]3[C@H](C1=C(C)C[C@@H]2O)[C@H](C)CC1=CC(=O)CC[C@@H]13` [Example 5, (7α,17β)-13-Ethyl-17-hydroxy-7,15-dimethylgona-4,14-dien-3-one]: “+” and “++”.
Consider `CC[C@@H]1CC2=CC(=O)CC[C@@H]2[C@H]2CC[C@@]3(C)C(=C(C)C[C@@H]3O)[C@H]12` [Example 3, (7α,17β)-7-Ethyl-17-hydroxy-15-methylestra-4,14-dien-3-one], for which the Progestational activity result in series [1] is reported as “+”. In addition, in series [2], the Androgenic activity entry is given as “++”.
Turning to `CC[C@@H]1CC2=C(CC[C@@H](O)C2)[C@H]2CC[C@@]3(C)C(=C(C)C[C@@H]3O)[C@H]12` [Example 8b, (3α,7α,17β)-7-ethyl-15-methylestra-5(10),14-diene-3,17-diol], the Progestational activity result in series [1] is given as “Prodrug”. In addition, the Androgenic activity result in series [2] is recorded as “Prodrug”.

The values above are taken from patent US20040059140A1, “14(15)-unsaturated 15- and/or 16-substituted androgens with mixed androgen-progrestational profile” (priority 2000, published 2004).
